Test system: PGE2 production in A549 cells
Assay: Suppressing action against PGE2 production in human cultured cells (A549, IL-1β-induced cyclooxygenase 2, arachidonic acid added)
Assay type: cell-based
Conditions: 10 μM test substance, PGE2 in medium by EIA, duplicate
Description: In Vitro Evaluation Method (Suppressing Action Against PGE2 Production in Human Cultured Cells)
A549 cells were inoculated on a 24-well plate (10^5 cells/ml/well), and cultured for 1 day in the Ham's F-12 medium containing 10% fetal bovine serum (FBS). The medium was removed, and the cells were washed with Dulbecco's phosphate buffered saline (PBS), and then cultured for 3 days in the Ham's F-12 medium containing 1 ng/ml of a recombinant human IL-1β and FBS to induce cyclooxygenase 2. After the medium was removed, and the cells were washed with PBS, 0.99 ml of the Ham's F-12 mediums containing a test substance (dissolved in dimethyl sulfoxide at a final concentration of 1% and added) and […] L-glutathione reduced was added to the cells, and the cells were incubated at 37° C. for 30 minutes in a 5% CO2 incubator. To the culture was added 10 μl of a 0.5 mg/ml solution of arachidonic acid in ethanol (final concentration: 5 μg/ml), and the reaction was performed by incubating the culture at 37° C. and 50 rpm for 30 minutes. After completion of the reaction, the medium was immediately collected, and the PGE2 concentration in the medium was measured by using Prostaglandin E2 Express EIA Kit (Cayman Chemical). Dimethyl sulfoxide not containing the test substance was added to a blank and a control, and ethanol not containing arachidonic acid was added to the blank to perform the reaction. The experiment was performed in duplicate. The suppression rate of the test substance based on the control was calculated by using the following equation. Suppression rate (100%)=100×[1−(PGE2 concentration in medium containing test substance−PGE2 concentration in medium of blank)/(PGE2 concentration in medium of control−PGE2 concentration in medium of blank)]

Structure (SMILES)	PGE2 production suppression rate at 10 μM, Suppression rate (%)
CC(C(=O)O)c1ccc(CC2SCCC2O)cc1 (single isomer, unassigned) [Example 27-A, 2-[4-(3-Hydroxythiolan-2-ylmethyl)phenyl]propionic Acid]	40.0%
CC(C(=O)O)c1ccc(CC2SCCC2O)cc1 (single isomer, unassigned) [Example 27-B, 2-[4-(3-Hydroxythiolan-2-ylmethyl)phenyl]propionic Acid]	76.3%
CC(C(=O)O)c1ccc(CC2CCCC2O)cc1 (centres unmarked) [LXP-2a, reference compound]	92.0%

Same assay, conditions: Homo sapiens, A549, 0.5 h, 10 μM test substance, PGE2 in medium by EIA, duplicate, read-out: PGE2 production suppression rate at 10 μM, Suppression rate (%)

Structure (SMILES)	inhibition at 10 µM
CC(C(=O)O)c1ccc(/C=C2\CSCC2=O)cc1 (centres unmarked) [Example 23, 2-[4-(4-Oxothiolan-3-ylidenemethyl)phenyl]propionic Acid]	102%
C[C@H](C(=O)O)c1ccc(/C=C2\SCC[C@@H]2O)cc1 [Example 19-C, (2S,3′S)-2-{4-[3-Hydroxythiolan-(Z)-2-ylidenemethyl]phenyl}propionic Acid]	101%
C[C@H](C(=O)O)c1ccc(/C=C2/C=CCS2)cc1 [Example 20, (2S)-2-[4-(2,5-Dihydrothien-(Z)-2-ylidenemethyl)phenyl]propionic Acid]	94.5%
CC(C(=O)O)c1ccc(CC2C=CSC2)cc1 (centres unmarked) [Example 10, 2-[4-(2,3-Dihydrothiophen-3-ylmethyl)phenyl]propionic Acid]	69.4%
COc1cc(/C=C2\SCCC2O)ccc1C(C)C(=O)O (centres unmarked) [Example 53, 2-[4-(3-Hydroxythiolan-2-ylidenemethyl)-2-methoxyphenyl]propionic Acid]	72.8%
O=C(O)Cc1ccc(/C=C2\SCCC2O)cc1 (centres unmarked) [Example 31, 4-(3-Hydroxythiolan-2-ylidenemethyl)phenylacetic Acid]	85.9%
CC(C(=O)O)c1ccc(/C=C2\CCSC2=O)cc1 (centres unmarked) [Example 35, 2-[4-(2-Oxothiolan-3-ylidenemethyl)phenyl]propionic Acid]	44%
CC(C(O)=S)c1ccc(CC2CSCC2=O)cc1 (centres unmarked) [Example 11, 2-[4-(4-Oxothiolan-3-ylmethyl)phenyl]thiopropionic Acid]	49.2%
CC(C(=O)O)c1ccc(/C=C2\SCCC2O)c([N+](=O)[O-])c1 (centres unmarked) [Example 57, 2-[4-(3-Hydroxythiolan-2-ylidenemethyl)-3-nitrophenyl]propionic Acid]	91.6%
CC(C(=O)O)c1ccc(/C=C2/CCCS2)cc1 (centres unmarked) [Example 37, 2-[4-(Thiolan-2-ylidenemethyl)phenyl]propionic Acid]	89.7%
CC(C(=O)O)c1ccc(/C=C2\SCCCC2O)cc1 (centres unmarked) [Example 5, 2-[4-(3-Hydroxythian-2-ylidenemethyl)phenyl]propionic Acid]	68.4%
CC(C(=O)OC(C)(C)C)c1ccc(/C=C2\SCCC2=O)cc1 (centres unmarked) [Example 13, tert-Butyl 2-{4-[3-oxothiolan-(Z)-2-ylidenemethyl]phenyl}propionate]	48%
CC(C(=O)O)c1ccc(/C=C2\SCCC2O)c(Cl)c1 (centres unmarked) [Example 65, 2-[3-Chloro-4-(3-hydroxythiolan-2-ylidenemethyl)phenyl]propionic Acid]	101%
C[C@@H](C(=O)O)c1ccc(/C=C2\SCC[C@@H]2O)cc1 [Example 19-D, (2R,3′S)-2-{4-[3-Hydroxythiolan-(Z)-2-ylidenemethyl]phenyl}propionic Acid]	44.5%
CC(C(=O)O)c1ccc(/C=C2\SCCC2=O)cc1 (centres unmarked) [Example 14, 2-{4-[3-Oxothiolan-(Z)-2-ylidenemethyl]phenyl}propionic Acid]	98.5%
CC(C(=O)O)c1ccc(/C=C2\CSCC2O)cc1 (centres unmarked) [Example 22, 2-[4-(4-Hydroxythiolan-3-ylidenemethyl)phenyl]propionic Acid]	99.7%
O=C(O)Cc1ccc(/C=C2\SCCC2=O)cc1 [Example 29, 4-(3-Oxothiolan-2-ylidenemethyl)phenylacetic Acid]	96.8%
CC(C(=O)O)c1cccc(/C=C2\SCCC2O)c1 (centres unmarked) [Example 69, 2-[3 (3-Hydroxythiolan-2-ylidenemethyl)phenyl]propionic Acid]	22.8%
CC(C(=O)O)c1ccc(/C=C2\SCCC2O)c(F)c1 (centres unmarked) [Example 61, 2-[3-Fluoro-4-(3-hydroxythiolan-2-ylidenemethyl)phenyl]propionic Acid]	92.8%
CC(C(=O)O)c1ccc(/C=C2\SCCC2O)cc1 (centres unmarked) [Example 18, 2-{4-[3-Hydroxythiolan-(Z)-2-ylidenemethyl]phenyl}propionic Acid]	99.5%
CC(C(=O)O)c1ccc(/C=C2\SCCCC2=O)cc1 (centres unmarked) [Example 4, 2-[4-(3-Oxothian-2-ylidenemethyl)phenyl]propionic Acid]	77.8%
CC(C(=O)O)c1ccc(CC2CSCC2=O)cc1 (centres unmarked) [Example 8, 2-[4-(4-Oxothiolan-3-ylmethyl)phenyl]propionic Acid]	66.4%
CC(C(=O)O)c1ccc(CC2SCCC2=O)cc1 (centres unmarked) [Example 26, 2-[4-(3-Oxothiolan-2-ylmethyl)phenyl]propionic Acid]	79.6%
CC(C(=O)O)c1ccc(/C=C2\SCCC2(F)F)cc1 (centres unmarked) [Example 25, 2-[4-(3,3-Difluorothiolan-2-ylidenemethyl)phenyl]propionic Acid]	73.3%
CCOC(=O)C(C)c1ccc(/C=C2\SCCC2=O)cc1 (centres unmarked) [Example 15, Ethyl 2-{4-[3-oxothiolan-(Z)-2-ylidenemethyl]phenyl}propionate]	36.9%
CC(C(=O)O)c1ccc(CC2CSCC2O)cc1 (centres unmarked) [Example 9-A, 2-[4-(4-Hydroxythiolan-3-ylmethyl)phenyl]propionic Acid]	34.7%

Test system: CPA-induced rat pollakiuria model
Assay: Anti-pollakiuria effect in cyclophosphamide (CPA)-induced rat pollakiuria model
Assay type: in vivo
Conditions: oral administration, male SD rats, CPA 150 mg/kg i.p., urination frequency over 3 hours, probit method
Description: 1. Anti-Pollakiuria Effect in Cyclophosphamide (CPA)-Induced Rat Pollakiuria Model
To 7-week old male SD rats, 150 mg/kg of CPA was intraperitoneally administered, and the rats were starved for 24 hours, and then used for the test. Thirty minutes after the oral administration of the test substance, physiological saline (30 ml/kg) was orally administered, the rats were put into a metabolism cage for rats, and then frequency of urination was counted for 3 hours. For the counting of the frequency of urination, a weighing dish hung from an FD pickup was disposed at a urine outlet at the lower part of the metabolism cage, and frequency of urination was obtained based on change of urination volume obtained by a polygraph apparatus. To a control (treated with CPA) and an intact control (no treatment), the solvent was orally administered, and frequency of urination was counted in the same manner. Improvement rate of pollakiuria induced by the CPA treatment relative to the control was calculated in accordance with the following equation, and ED50 value was further calculated by the probit method based on the improvement rate at each dose. Improvement rate (%)=(Urination frequency of control−Urination frequency observed with test substance)/(Urination frequency of control−Urination frequency of intact control)×100

Structure (SMILES)	ED50
C[C@H](C(=O)O)c1ccc(/C=C2\SCC[C@@H]2O)cc1 [Example 19-C, (2S,3′S)-2-{4-[3-Hydroxythiolan-(Z)-2-ylidenemethyl]phenyl}propionic Acid]	0.1 mg/kg
CC(C(=O)O)c1ccc(CC2CCCC2=O)cc1 (centres unmarked) [Loxoprofen-Na, reference compound]	1.8 mg/kg

Test system: gastric mucosa
Assay: Gastric mucosa injury induction action by single oral administration in rats
Assay type: in vivo, rat
Conditions: starved male SD rats, stomach examined after 5 hours, probit method
Description: 2. Gastric Mucosa Injury Induction Action by Single Oral Administration in Rats
7-Week old male SD rats were starved for 24 hours, and then used for the test. Five hours after the oral administration of a test substance, the stomach was extracted, and incised along the greater curvature of stomach, and a stomach specimen was fixed in a neutrally buffered 1% formalin solution. The stomach specimen was observed under a stereoscopic microscope, and when specimen had four or more hemorrhagic sores or ulcers having a major axis of 0.5 mm or larger, the result was judged to be positive. […]

Structure (SMILES)	UD30 value (gastric mucosa injury)
C[C@H](C(=O)O)c1ccc(/C=C2\SCC[C@@H]2O)cc1 [Example 19-C, (2S,3′S)-2-{4-[3-Hydroxythiolan-(Z)-2-ylidenemethyl]phenyl}propionic Acid]	13.8 mg/kg
CC(C(=O)O)c1ccc(CC2CCCC2=O)cc1 (centres unmarked) [Loxoprofen-Na, reference compound]	25.5 mg/kg

Test system: not listed separately
Assay: Safety factor (UD30 gastric mucosa injury / ED50 anti-pollakiuria)
Assay type: in vivo
Conditions: SD, rat, in vivo
Description: Safety factor was obtained in accordance with the following equation using the ED50 value and UD30 value obtained in the tests for the anti-pollakiuria effect in CPA-induced rat pollakiuria model and the gastric mucosa injury induction action by single oral administration in rats, respectively. Safety factor=UD30 value (mg/kg) for gastric mucosa injury induction action by single oral administration in rats/ED50 value (mg/kg) for anti-pollakiuria effect in CPA-induced rat pollakiuria model

Structure (SMILES)	Safety factor
CC(C(=O)O)c1ccc(CC2CCCC2=O)cc1 (centres unmarked) [Loxoprofen-Na, reference compound]	14

Same assay, conditions: UD30 value (mg/kg) / ED50 value (mg/kg), rats

Structure (SMILES)	Safety factor
C[C@H](C(=O)O)c1ccc(/C=C2\SCC[C@@H]2O)cc1 [Example 19-C, (2S,3′S)-2-{4-[3-Hydroxythiolan-(Z)-2-ylidenemethyl]phenyl}propionic Acid]	138

Reference: patent US8148421B2, “Phenylacetic acid derivative” (Fuji Yakuhin Co., Ltd., priority 2006, dated 2012)
